Source: US9980966B2, “Combinations of cancer therapeutics” (Merck Patent GmbH, priority 2014, dated 2018)

How the values were obtained:
[1] = test system: broad panel of cancer cell lines; assay: Anti-tumor activity of the single agent in a panel of cancer cell lines; format: cell-based
Method: The cell lines were grown in the media recommended by the suppliers in the presence of 100 U/ml penicillinG and 100 μg/ml streptomycin supplied with 10% FCS (PAN, Germany).
Cell growth and treatment were performed in 96-well microtitre plates. Cells harvested from exponential phase cultures by trypsinization were plated in 190 μl of media at optimal seeding densities. The optimal seeding densities for each cell line were determined to ensure exponential growth for the duration of the experiment. All cells growing without anticancer agents were sub-confluent by the end of the treatment as determined by visual inspection. Compound dilutions in DMSO were performed in 96-well rigid PCR plates. Compounds were then diluted […] in RPMI medium. 190 μl of cells, after a 24-hour pre-growth period, were treated by mixing with 10 μl of the compound-containing media (resulting in a final DMSO concentration of 0.1%). The cells were allowed to grow at 37° C. for 72 hours. In addition, all experiments contained a few plates with cells that were processed for measurement immediately after the 24 hours recovery period. These plates contained information about the cell number that existed before treatment, at time zero, and served to calculate the cytotoxicity and/or growth inhibitory effects. […] Measurement of optical density was performed at 560 nm on a Victor 2 plate reader (Perkin Elmer, Germany). […]

[2] = test system: Her2+ patient-derived breast model "CTG-0033"; assay: Patient derived xenograft model of breast cancer, tumor volume efficacy study; format: in vivo, mice
From the text: Female nude (Harlan; nu/nu) between 5-7 weeks were implanted subcutaneously with tumor fragments from the Her2+ patient-derived breast model “CTG-0033” (passage 3, i.e. the model has been serially passaged/grown from the original host 3 times) harvested from host animals. When host tumors reached 1-1.5 cm^3, tumors were harvested for re-implantation into animals to be used for the efficacy study. When the CTG-0033 (passage 4) tumors reached approximately 190 mm^3; animals were randomized by tumor volume into treatment or control groups (n=10) and dosing was initiated on Day 0. […] Tumor volumes were recorded twice per week. […] The other treatments were stopped at Day 75 and tumors were allowed to grow back for over 2 months with mice receiving no treatment.

NC(=O)c1cccc2c(N[C@H](CN3CCC3)c3ccc(Cl)c(C(F)(F)F)c3)ncnc12 [Compound A, 4-[(S)-2-Azetidin-1-yl-1-(4-chloro-3-trifluoromethyl-phenyl)-ethylamino]-quinazoline-8-carboxylic acid amide]
anti-tumor activity against a broad panel of cancer cell lines [1]: potent anti-tumor activity | sensitivity of cancer cells to the compound ([1]; breast cancer cells, glioblastoma cells, endometrial cancer cells and ovarian carcinoma cells): particularly sensitive | tumor regression ([2]; Day 55, Compound A 30 mg/kg QD PO, Herceptin 15 mg/kg QW IV in the combination, CTG-0033 tumors in female nude mice): 50% | tumor regression ([2]; Day 76, after treatment until Day 75): −66% | number of treated tumors that grew back ([2]; after 71 days of regrowth period after cessation of treatment, log rank sum test p<0.05): 6
